Results reported in patent US12421276B2 (priority 2016, dated 2025).
Where a SMILES comes first, the peptide text is derived from it. [ ]: non-standard residue; d: D form. The star is where a group is joined. Hexanoyl = CCCCCC(=O)*; Ahx = NCCCCCC(=O)O

Legend:
[1] = Plasma stability study, human plasma; assay type: in vitro ADME; conditions: human, plasma
Description: (§1) Human and rat plasma (K2 EDTA) were obtained from Bioreclamation.
(§2) Compounds were dissolved as 0.3 mM DMSO stocks. Compounds were transferred to the plasma at 1 μM on a 96-well deep well plate. After mixing, samples were transferred to several 96-well plates (25 μL/well), and incubated at 37° C. The extent of metabolism was calculated as the disappearance of the test compound, compared to the 0-min control reaction incubations. Propantheline was included as a positive control to verify assay performance.
(§3) At each of the time points, 150 μL of quench solution (50% acetonitrile, 50% methanol with 0.05% formic acid) with internal standard (bucetin for positive ESI mode and warfarin for negative ESI mode) was transferred to each well. Plates were sealed and centrifuged at 4° C. for 15 minutes at 4000 rpm. The supernatant was transferred to fresh plates for LC/MS/MS analysis.
(§4) Elution conditions are detailed in the table below.
(§5) Initial rates of the clearance of test compounds were calculated using linear regression of semi-log plot of % remaining of compounds versus time. The elimination rate constant (equals to −slope) of the linear regression was then used to determine t½ values.

[2] = Plasma stability study, rat plasma; assay type: in vitro ADME; conditions: rat, plasma
Description: as §1, §2, §3, §4, §5

Caco-2 cells = experiment: Caco-2 permeability study with or without P-gp inhibitor GF120918; conditions: for Abs. Quotient: (Papp A-B with inhibitor − without inhibitor)/Papp A-B with inhibitor; for Caco-2 Cells Permeability Recovery Rate: 1 hr, pH 7.4
Description: Buffer=HBSS, pH 7.4 with 5 mM HEPES
Caco-2 cell plates were obtained commercially and were maintained for 21 days at 37° C. with 5% CO2. Cells were washed with Hank's Balanced Salt Solution (HBSS) 30 min before starting the experiment. Test compound solutions were prepared by diluting from DMSO stock into HBSS buffer in the presence or absence of 10 μM of P-gp inhibitor GF120918. The final DMSO concentration is 0.2%. Prior to each experiment, cell monolayer integrity was verified by transendothelial electrical resistance (TEER). Transport experiment was initiated by adding test compounds to the apical (75 μL) side. Transport plates were incubated at 37° C. in a humidified incubator with 5% CO2. Samples were taken from the donor and acceptor compartments after 1 hr and analyzed by liquid chromatography with tandem mass spectrometry (LC/MS/MS).
Apparent permeability (Papp) values were calculated using the following equation: Papp=(dQ/dt)/A/C0
where dQ/dt is the initial rate of amount of test compound transported across cell monolayer, A is the surface area of the filter membrane, and C0 is the initial concentration of the test compound. C0 is calculated for each condition using a 4-point calibration curve.
Absorption quotient between the two assay conditions was calculated by the following equation:
Absorption quotient (AQ)=(Papp, A-B with inhibitor−Papp, A-B without inhibitor)/Papp, A-B with inhibitor where Papp, A-B with inhibitor and Papp, A-B without inhibitor represent the apparent permeability of test compound from the apical to basal side of the cellular monolayer in the presence and absence of 10 μM P-gp inhibitor GF120918, respectively.
All samples were analyzed on LC/MS/MS using an AB Sciex API 4000 instrument, coupled to a Shimadzu LC-20AD LC Pump system. Analytical samples were separated using a Waters Atlantis T3 dC18 reverse phase HPLC column (10 mm×2.1 mm) at a flow rate of 0.5 mL/min. The mobile phase consisted of 0.1% formic acid in water (solvent A) and 0.1% formic acid in acetonitrile (solvent B).

[3] = +GF120918 (10 μM), 10 μM compound

| Compound | Plasma Stability Half-Life [1] [min] | Plasma Stability Half-Life [2] [min] | Abs. Quotient (Caco-2 cells) | Caco-2 Cells Permeability Recovery Rate (Caco-2 cells; [3]) [%] | Caco-2 Cells Permeability Recovery Rate (Caco-2 cells; −GF120918, 10 μM compound) [%] |
| --- | --- | --- | --- | --- | --- |
| CCCCCC(=O)NC(Cc1ccc(OC(=O)C(N)C(C)C)cc1)C(=O)NC(C(=O)NCCCCCC(N)=O)C(C)CC (stereo not shown) [Compound A27] (Hexanoyl-Tyr(Val)-Ile-[Ahx]-NH2; configuration not given here) | 13.2 | 31.9 | 0.70 | 94 | 90 |
| CCCCCC(=O)NC(Cc1ccc(OC(=O)CN2CCOCC2)cc1)C(=O)NC(C(=O)NCCCCCC(N)=O)C(C)CC (stereo not shown) [Compound A23] | 31.3 | 8.2 | 0.78 | 96 | 91 |
